# Paper PMC7433010, “Exploration of multi‐target effects of 3‐benzoyl‐5‐hydroxychromen‐2‐one in Alzheimer’s disease cell and mouse models” (Aging Cell, 2020)
# Assays:
# CREB = test: Western blot of CREB in hippocampus of STZ‐treated 3 × Tg‐AD mice; type: in vivo, mouse; details: among the three groups
# Protocol: In addition, isolated hippocampal and cortex tissues from transgenic mice (as described in Animal studies) were homogenized and extracted proteins (10 µg) were separated and blotted. After being blocked, the membranes were probed with antibody against mouse NRF2 (1:500; Sigma-Aldrich), CREB (1:500; Millipore), pCREB (S133) (1:1000; Millipore), or GAPDH (1:1000; MDBio), and the immune complexes detected as described above.
# (§1) Mice harboring APPSwe, PS1M146V, and […] transgenes (3×Tg-AD) (Oddo et al., 2003) were purchased from the Jackson Laboratory (004807; Bar Harbor, ME, USA). Six-month-old male homozygous 3×Tg-AD mice were group housed at 20–25°C and 60% relative humidity under a daily 12-h light/12-h dark cycle, with assess to food and water ad libitum. Mice were randomly divided into 3 groups: – streptozocin (STZ), STZ, and STZ/LM-031 (n = 10 per group). STZ-induced hyperglycemia was used to accelerate the development of AD phenotype (Chen et al., 2014). Briefly, the mice were fasted for 12 h each day prior to intraperitoneal (i.p.) injection of STZ ([…]; Sigma-Aldrich) or vehicle (0.1 M sodium citrate pH4.5) for 4 times (days 2, 3, 9, and 10) (Chen et al., 2019). Mouse body weight was measured and blood glucose level was measured on days 1, 8, 15, 22, and 29 using a blood glucose meter (Bioland Technology, Taipei, Taiwan). […]
# [1] = system: STZ‐induced hyperglycemic 3 × Tg‐AD mice; test: Open‐field test in STZ‐treated 3 × Tg‐AD mice; type: in vivo, mouse; details: day 24; 40 mg/kg i.p.
# Protocol: as §1, with “Taiwan). LM-031 (40 mg/kg) or vehicle (DMSO:Cremophor EL:0.9% saline = 1:2:7) was intraperitoneally injected every day for 22 days from days 15 to 36. All animal procedures were ethically approved by the Institutional Animal Care and Use Committee of National Taiwan Normal University, Taipei, Taiwan (Permit Number: 103002) and were conducted in compliance with the ARRIVE (Animal Research: Reporting In Vivo Experiments) guidelines.” for “Taiwan).”
# [2] = target: T1, His‐tagged ∆K280 TauRD protein (Homo sapiens, UniProt P10636, DEL597-597); test: Thioflavin T binding assay for TauRD aggregation; type: biochemical; details: 10 µM, 2 days at 37°C; without compound 16,856 AU
# T1 construct: containing residues 244–372 of the full‐length 4R2N Tau441; added start Met (ATG codon in forward primer) (N); made in house; host or cells: E. coli BL21(DE3)pLysS
# Text: Although known to reduce Aβ neurotoxicity (Lorenzo & Yankner, 1994), congo red was also reported as an agonist to drive aggregation within 293 cells expressing full‐length tau isoform htau40 (Bandyopadhyay, Li, Yin, & Kuret, 2007). Thus, we further examined the effects of congo red and tested chalcones on Tau misfolding using prokaryotic His‐tagged wild‐type (WT) and ∆K280 pET‐28a(+)‐TauRD proteins (Figure S3a) using thioflavin T binding assay and transmission electron microscopy (TEM) examination. […]
# For thioflavin T binding assay, TauRD protein (20 μM in final 50 μl) was incubated with tested compounds (1−10 μM) in 150 mM NaCl and 20 mM Tris-HCl, pH 8.0, at 37°C for 48 h to form aggregates. […] Thioflavin T fluorescence intensity of samples was recorded by using a microplate reader (Bio-Tek FLx800), with excitation 420 nm and emission 485 nm filter combination.
# Figure S3. TauRD-His proteins and Tau aggregation monitored by thioflavin T fluorescence and TEM. […] TauRD protein (20 μM in 50 μl buffer) was incubated with congo red, licochalcone A, or LM compounds (1−10 μM) at 37°C for 48 h, and aggregation was monitored by measuring thioflavin T fluorescence intensity (n = 3). p values: comparisons between 0 h and 48 h (^###: p < 0.001), wild type versus ΔK280 (^&&&: p < 0.001), or with and without compound addition (**: p < 0.01, ***: p < 0.001). […]
# [3] = target: T1, His‐tagged ∆K280 TauRD protein; test: TEM examination of ΔK280 TauRD aggregates; type: biochemical; details: 10 µM
# Text: For TauRD aggregation examination, the samples of formed fibrils without or with compound addition were placed on a 200-Mesh copper (holey-carbon) grid and viewed on a JEM-1230 transmission electron microscope (JEOL, Tokyo, Japan) at an accelerating voltage of 100 kV.
# Figure S3. TauRD-His proteins and Tau aggregation monitored by thioflavin T fluorescence and TEM. (a) SDS-PAGE gel (left) and Western blot (right) of wild type (WT) and ΔK280 TauRD proteins from IPTG-induced bacterial cells. Wild type clone #3 and ΔK280 clone #2 (marked in red) were selected to prepare purified proteins for thioflavin T and TEM studies. (b) Thioflavin T binding assay for TauRD aggregation. TauRD protein (20 μM in 50 μl buffer) was incubated with congo red, licochalcone A, or LM compounds (1−10 μM) at 37°C for 48 h, and aggregation was monitored by measuring thioflavin T fluorescence intensity (n = 3). p values: comparisons between 0 h and 48 h (^###: p < 0.001), wild type versus ΔK280 (^&&&: p < 0.001), or with and without compound addition (**: p < 0.01, ***: p < 0.001). (one-way ANOVA with a post hoc Tukey test) (c) TEM examination of ΔK280 TauRD aggregation without or with congo red and LM-004 (10 μM) addition.
# T1 sequence (P10636 with tags, fused parts or gaps isoform P10636-8 DEL280-280): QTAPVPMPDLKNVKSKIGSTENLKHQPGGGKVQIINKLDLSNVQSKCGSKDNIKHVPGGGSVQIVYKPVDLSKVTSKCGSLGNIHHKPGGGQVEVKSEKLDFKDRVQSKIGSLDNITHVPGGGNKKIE
ΔK280 TauRD aggregation (thioflavin T fluorescence) [2],Tau aggregates by TEM [3],Structure (SMILES),relative total CREB level in hippocampus (CREB),open‐field distance traveled and inactive time [1]
–,–,"O=C(c1ccccc1)c1cc2c(O)cccc2oc1=O [LM‐031, 3‐benzoyl‐5‐hydroxychromen‐2‐one]",not significantly different,No significant change
"4,774 AU",reduced Tau aggregates,"Nc1c(/N=N/c2ccc(-c3ccc(/N=N/c4cc(S(=O)(=O)O)c5ccccc5c4N)cc3)cc2)cc(S(=O)(=O)O)c2ccccc12 [congo red, reference compound]",–,–
"6,758 AU",reduced Tau aggregates,COc1ccc(C(=O)/C=C/c2cc(Br)ccc2O)cc1 [LM‐004],–,–
